IC50 and Kd data for 37 compounds are collected here from ChEMBL document CHEMBL5120900, “Structure-Based Discovery of a Series of NSD2-PWWP1 Inhibitors” (J Med Chem, 2022).

Structures are written as SMILES.

In general, IC50 refers to the point on the concentration scale where inhibition reaches its midpoint. Read a low IC50 as greater potency. A word on the Kd: it is the free concentration of one partner at which half of the binding sites on the other are occupied at equilibrium, for simple one-to-one binding.

Assay [1] concerns the target T1, Histone-lysine N-methyltransferase NSD2 (Homo sapiens, UniProt O96028).
T1 sequence (O96028 whole entry): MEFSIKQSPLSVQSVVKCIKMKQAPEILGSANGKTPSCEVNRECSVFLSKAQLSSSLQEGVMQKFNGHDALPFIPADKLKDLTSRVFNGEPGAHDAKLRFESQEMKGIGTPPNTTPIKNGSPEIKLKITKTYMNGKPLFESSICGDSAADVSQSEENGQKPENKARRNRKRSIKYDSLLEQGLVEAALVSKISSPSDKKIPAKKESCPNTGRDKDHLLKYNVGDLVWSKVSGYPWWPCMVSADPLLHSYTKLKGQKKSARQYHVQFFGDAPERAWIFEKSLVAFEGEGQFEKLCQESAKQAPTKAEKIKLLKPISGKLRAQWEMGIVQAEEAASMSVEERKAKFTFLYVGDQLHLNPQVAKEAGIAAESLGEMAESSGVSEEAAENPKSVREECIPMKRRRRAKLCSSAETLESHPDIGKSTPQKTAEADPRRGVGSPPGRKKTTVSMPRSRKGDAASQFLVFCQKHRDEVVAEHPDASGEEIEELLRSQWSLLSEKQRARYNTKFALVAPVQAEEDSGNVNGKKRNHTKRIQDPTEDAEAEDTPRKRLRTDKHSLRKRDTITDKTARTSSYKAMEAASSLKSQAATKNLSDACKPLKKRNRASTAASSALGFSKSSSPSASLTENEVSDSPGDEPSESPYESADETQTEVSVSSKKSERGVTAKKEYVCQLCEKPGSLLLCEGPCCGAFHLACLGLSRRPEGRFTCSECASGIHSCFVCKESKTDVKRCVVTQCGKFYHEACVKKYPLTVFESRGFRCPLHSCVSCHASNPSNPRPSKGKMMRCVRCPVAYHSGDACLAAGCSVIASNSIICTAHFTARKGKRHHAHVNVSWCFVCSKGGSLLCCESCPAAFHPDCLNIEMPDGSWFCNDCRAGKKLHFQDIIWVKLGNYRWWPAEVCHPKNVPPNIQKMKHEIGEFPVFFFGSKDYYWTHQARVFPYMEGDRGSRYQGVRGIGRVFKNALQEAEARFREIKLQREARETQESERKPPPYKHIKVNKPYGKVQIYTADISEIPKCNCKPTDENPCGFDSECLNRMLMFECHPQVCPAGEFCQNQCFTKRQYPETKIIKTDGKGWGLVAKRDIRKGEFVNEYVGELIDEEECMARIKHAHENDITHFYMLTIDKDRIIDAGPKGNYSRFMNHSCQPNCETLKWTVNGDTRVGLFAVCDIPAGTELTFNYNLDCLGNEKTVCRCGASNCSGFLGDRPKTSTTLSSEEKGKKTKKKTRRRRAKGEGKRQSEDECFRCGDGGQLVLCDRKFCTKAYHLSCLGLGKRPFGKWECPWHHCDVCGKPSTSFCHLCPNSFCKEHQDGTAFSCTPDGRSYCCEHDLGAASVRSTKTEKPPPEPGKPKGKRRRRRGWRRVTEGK
The assay can be described thus: Binding affinity to N-terminal His6/Sumo-tagged NSD2 PWWP1 domain (211 to 350 residues) (unknown origin) expressed in Escherichia coli BL21 (DE3) using ATKAARKSAPATGGV-Lys (me)2-KPHRYRPG polypeptide as substrate incubated for 3 hrs by HTRF assay. For orientation: TR-FRET usually uses a lanthanide donor and a delayed reading to cut background.

The target in assay [2] is T2, Histone-lysine N-methyltransferase NSD3 (Homo sapiens, UniProt Q9BZ95).
T2 sequence (Q9BZ95 whole entry): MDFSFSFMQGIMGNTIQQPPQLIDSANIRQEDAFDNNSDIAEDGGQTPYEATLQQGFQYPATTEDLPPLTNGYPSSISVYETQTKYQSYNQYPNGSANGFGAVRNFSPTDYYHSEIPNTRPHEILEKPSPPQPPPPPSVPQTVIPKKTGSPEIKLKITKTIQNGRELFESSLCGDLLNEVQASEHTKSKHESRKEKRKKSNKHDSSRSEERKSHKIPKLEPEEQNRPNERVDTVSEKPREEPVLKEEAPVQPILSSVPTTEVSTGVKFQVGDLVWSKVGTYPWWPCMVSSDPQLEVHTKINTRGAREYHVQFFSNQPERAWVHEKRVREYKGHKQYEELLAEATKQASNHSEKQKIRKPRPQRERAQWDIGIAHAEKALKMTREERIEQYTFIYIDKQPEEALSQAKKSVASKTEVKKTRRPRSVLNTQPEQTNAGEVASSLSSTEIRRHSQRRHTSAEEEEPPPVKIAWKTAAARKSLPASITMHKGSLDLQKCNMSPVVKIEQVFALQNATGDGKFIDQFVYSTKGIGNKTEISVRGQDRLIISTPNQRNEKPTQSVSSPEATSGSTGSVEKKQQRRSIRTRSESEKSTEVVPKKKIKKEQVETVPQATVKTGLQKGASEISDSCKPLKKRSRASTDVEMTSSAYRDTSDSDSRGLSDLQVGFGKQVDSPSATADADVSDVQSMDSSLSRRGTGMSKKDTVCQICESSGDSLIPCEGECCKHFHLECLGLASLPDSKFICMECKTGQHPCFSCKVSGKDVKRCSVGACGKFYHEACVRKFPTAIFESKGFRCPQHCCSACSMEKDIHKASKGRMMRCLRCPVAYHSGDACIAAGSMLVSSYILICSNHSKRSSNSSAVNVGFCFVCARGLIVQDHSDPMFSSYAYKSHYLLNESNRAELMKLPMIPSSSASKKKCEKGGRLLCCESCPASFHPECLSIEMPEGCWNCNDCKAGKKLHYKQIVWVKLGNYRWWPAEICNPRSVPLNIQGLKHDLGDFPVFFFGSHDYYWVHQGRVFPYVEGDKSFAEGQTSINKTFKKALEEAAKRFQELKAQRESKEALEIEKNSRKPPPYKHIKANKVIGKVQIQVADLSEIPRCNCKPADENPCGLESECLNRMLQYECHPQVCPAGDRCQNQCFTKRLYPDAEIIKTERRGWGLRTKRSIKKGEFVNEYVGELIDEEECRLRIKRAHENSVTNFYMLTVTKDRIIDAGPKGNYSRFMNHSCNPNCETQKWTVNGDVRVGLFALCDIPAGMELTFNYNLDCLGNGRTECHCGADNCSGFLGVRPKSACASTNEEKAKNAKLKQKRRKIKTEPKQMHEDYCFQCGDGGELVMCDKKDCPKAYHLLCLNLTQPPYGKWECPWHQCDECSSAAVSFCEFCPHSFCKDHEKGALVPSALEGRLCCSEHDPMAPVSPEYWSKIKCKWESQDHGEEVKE
The assay can be described thus: Binding affinity to NSD3 (unknown origin) assessed as dissociation constant.

Compound `Cc1cc(CN)cc(C)c1-c1ncn(C)c1-c1ccc(C#N)c(Cl)c1` gave a concentration for half-maximal inhibition (IC50) in assay [1] of 5.03 µM.
`Cc1cc(CN)cc(C)c1-c1ncn(C)c1-c1ccc(C#N)c(C(F)(F)F)c1` registered an IC50 in assay [1] of 15.4 µM. Against the preceding compound, the IC50 is about 3.1-fold higher.
For the compound `Cc1cc(C#N)cc(C)c1-c1ncn(C)c1-c1ccc(C#N)c2ccccc12`, the 50% inhibitory concentration (IC50) in assay [1] is greater than 20 µM.
Regarding `Cc1cc(CN)cc(C)c1-c1ncn(C)c1-c1ccc(C#N)c(N)c1`, in assay [1], the IC50 is 8.78 µM.
Take `Cc1cc(CNC(=O)OC(C)(C)C)cc(C)c1-c1ncn(C)c1-c1ccc(C#N)c2ccccc12`: the IC50 in assay [1] stood at 1.67 µM.
`Cn1cnc(-c2ccc(CN)cc2F)c1-c1ccc(C#N)cc1` showed an IC50 in assay [1] of 11.2 µM.
In assay [1], `Cc1cc(CNC2CC2)cc(C)c1-c1ncn(C)c1-c1ccc(C#N)c2ccccc12` displayed an IC50 of 0.43 µM.
In turn, `Cc1cc(CNC(C)(C)C)cc(C)c1-c1ncn(C)c1-c1ccc(C#N)c2ccccc12` had an IC50 in assay [1] of 0.64 µM.
Regarding `Cn1cnc(-c2ccc(CN)cc2C(F)(F)F)c1-c1ccc(C#N)cc1`, in assay [1], the IC50 is 6.01 µM. Against the preceding compound, the IC50 is about 9.4-fold higher.
`Cc1cc(CN)cc(C)c1-c1ncn(C)c1-c1ccc(C#N)c2ccccc12` gave an IC50 in assay [1] of 0.52 µM.
Consider `COc1cc(CN)ccc1-c1ncn(C)c1-c1ccc(C#N)cc1`, for which, in assay [1], the IC50 was 12 µM.
On to `CNc1cc(-c2c(-c3c(C)cc(CN)cc3C)ncn2C)ccc1C#N`, for which, in assay [1], the IC50 was greater than 20 µM.
In the case of `Cc1cc(CN2CCC(N(C)C)C2)cc(C)c1-c1ncn(C)c1-c1ccc(C#N)c2ccccc12` (configuration not stated), the IC50 in assay [1] is 2 µM.
The same measure, in the same setting: then `Cc1cc(CN)ccc1-c1ncn(C)c1-c1ccc(C#N)cc1`, with 4.68 µM; and `Cc1cc(CO)cc(C)c1-c1ncn(C)c1-c1ccc(C#N)c2ccccc12`, with 13.8 µM.
On to `Cc1cc(NC(=O)OC(C)(C)C)cc(C)c1-c1ncn(C)c1-c1ccc(C#N)c2ccccc12`, for which the IC50 in assay [1] is greater than 25 µM.
In assay [1], `Cc1cc(N)cc(C)c1-c1ncn(C)c1-c1ccc(C#N)c2ccccc12` returned an IC50 of 10.6 µM.
On to `Cc1cc(CN2CCCC2)cc(C)c1-c1ncn(C)c1-c1ccc(C#N)c2ccccc12`, for which the half-maximal inhibitory concentration (IC50) in assay [1] is 2.07 µM.
Compound `CCC(=O)c1cc(C)c(-c2ncn(C)c2-c2ccc(C#N)c3ccccc23)c(C)c1` showed an IC50 in assay [1] greater than 22 µM.
On the same count and under the same terms, then `Cc1cc(CN2CCCCC2)cc(C)c1-c1ncn(C)c1-c1ccc(C#N)c2ccccc12`, with 1.49 µM; and `Cc1cc(CNCCN)cc(C)c1-c1ncn(C)c1-c1ccc(C#N)c2ccccc12`, with 0.62 µM.
For `Cc1cc(CN)cc(C)c1-c1ncn(C)c1-c1ccc(C#N)c2ncccc12`, the concentration for half-maximal inhibition (IC50) in assay [1] was determined as 1.58 µM.
As to `Cn1cnc(-c2ccc(CN)cc2)c1-c1ccc(C#N)cc1`, the IC50 in assay [1] was 13.9 µM.
Regarding `COc1cc(-c2c(-c3c(C)cc(CN)cc3C)ncn2C)ccc1C#N`, the IC50 in assay [1] was 10.9 µM.
`Cc1cc(CN)cc(C)c1-c1ncn(C)c1-c1ccc(C#N)cc1`: the concentration for half-maximal inhibition (IC50) in assay [1] is 0.57 µM. This IC50 is about 19-fold lower than that of the compound before.
Still for that read-out and setting: as for `CCC(O)c1cc(C)c(-c2ncn(C)c2-c2ccc(C#N)c3ccccc23)c(C)c1` (configuration not stated), the figure is greater than 24 µM.
`CCNCc1cc(C)c(-c2ncn(C)c2-c2ccc(C#N)c3ccccc23)c(C)c1` yielded a concentration for half-maximal inhibition (IC50) in assay [1] of 0.7 µM.
The same measure, in the same setting: then `Cn1cnc(-c2ccc(CN)cc2Cl)c1-c1ccc(C#N)cc1`, with 6.11 µM; and `Cc1cc(CN2CCN(C(=O)OC(C)(C)C)CC2)cc(C)c1-c1ncn(C)c1-c1ccc(C#N)c2ccccc12`, with 8.07 µM.
Consider `N#Cc1ccc(C(=O)N(Cc2cccs2)C2CC2)cc1`, for which the Kd in assay [2] was 0.091 µM.
Consider `Cc1cc(CN2CCC(O)C2)cc(C)c1-c1ncn(C)c1-c1ccc(C#N)c2ccccc12` (configuration not stated), for which the IC50 in assay [1] is 0.52 µM.
`Cc1cc(CN2CCOCC2)cc(C)c1-c1ncn(C)c1-c1ccc(C#N)c2ccccc12` displayed a half-maximal inhibitory concentration (IC50) in assay [1] of 3.84 µM.
In assay [1], `Cc1cc(CN2CCNCC2)cc(C)c1-c1ncn(C)c1-c1ccc(C#N)c2ccccc12` registered an IC50 of 1.89 µM.
In assay [1], `Cc1cc(CN2CCC(NC(=O)OC(C)(C)C)CC2)cc(C)c1-c1ncn(C)c1-c1ccc(C#N)c2ccccc12` registered an IC50 of 8.05 µM. This IC50 is about 4.3-fold higher than that of the compound before.
Compound `COc1cc(CN)cc(OC)c1-c1ncn(C)c1-c1ccc(C#N)cc1` had a half-inhibitory concentration (IC50) in assay [1] of 4.44 µM.
Turning to `Cc1cc(CN)cc(C)c1-c1ncn(C)c1-c1ccc(C#N)c(F)c1`, the IC50 in assay [1] was 2.91 µM.
On the same count and under the same terms, then `Cc1cc(C=O)cc(C)c1-c1ncn(C)c1-c1ccc(C#N)c2ccccc12`, with greater than 21 µM.
